Measured values reported in article PMC7228129, “Evaluation of Developmental Toxicity, Developmental Neurotoxicity, and Tissue Dose in Zebrafish Exposed to GenX and Other PFAS” (Environmental Health Perspectives, 2020).
Entries after “also recorded” stand apart in the source; their conditions may differ.

Test system: zebrafish
Assay: Developmental neurotoxicity (DNT) assay, light/dark locomotor behavior test
Assay type: in vivo, Danio rerio
Conditions: for Developmental neurotoxicity / locomotor activity outcome / Concentration causing hyperactivity in D1 period / Concentration causing hyperactivity in D2 period / Concentration causing hyperactivity in L2 period / Concentration causing hyperactivity in L1 period: tested 6 dpf; for DNT assay phenotype: Table 5 summary, this study (some rows also list literature); for Concentration causing hyperactivity in D1 period: dark 1; for Concentration causing hyperactivity in D1 period / Concentration causing hyperactivity in D2 period / Concentration causing hyperactivity in L2 period / Concentration causing hyperactivity in L1 period: daily 0–5 dpf, vs 0.4% DMSO; for Concentration causing hyperactivity in D2 period: dark 2; for Concentration causing hyperactivity in L2 period: light 2
Experimental: At 0 dpf, zebrafish embryos were bleached as previously described ([Tal et al. 2017]). A single embryo at the dome-to-epiboly stages ([Kimmel et al. 1995]) was placed into each individual well of a 96-well plate containing a 40-μm nylon mesh filter (Millipore, Catalog No. MANMN4010) with 400μL of 10% Hanks’ balanced salt solution (HBSS) per well. Filter inserts containing zebrafish embryos were transferred to 96-well culture trays (Millipore, Catalog No. MAMCS9610) containing 250μL of 10% HBSS ([Westerfield 2007]) and 1μL of 250× working solutions per well. A final concentration of 0.4% DMSO was used for all exposure groups and as a vehicle control. In the case of GenX Free Acid in Study 2 (Figure 1), DI water was used as a vehicle control. Daily, from 1–5 dpf, plates underwent 100% media changes to refresh chemical dosing solutions by blotting (Brandel; Catalog No. FPXLR-196) and transferring mesh inserts containing zebrafish to new bottom plates (Millipore; Catalog No. MAMCS9610). To minimize evaporation, plates were sealed (Biorad; Catalog No. MSA5001) and wrapped with parafilm. Plates were maintained on a 14 h:10 h light cycle at 26.0°C and scored daily for death, malformations, hatching, and swim bladder inflation. At 6 dpf, plates were evaluated by two independent observers and DevTox or DNT assays were performed or media and tissue were collected for analytical chemistry analyses as described below.
To increase the likelihood of observing behavioral effects in morphologically normal larvae, the highest concentration evaluated in the DNT assay was the lowest observed effect concentration (LOEC) determined in DevTox assay. Zebrafish were exposed in parallel to 4.4, 7.9, 14.0, 25.1, 44.8, or 80.0μM PFOA, PFHxS, PFHxA, or ADONA or 0.2, 0.3, 0.6, 1.0, 1.8, or 3.1μM PFOS or 0.4% DMSO. Subsequently, as part of Study 1, exposure to 4.4, 7.9, 14.0, 25.1, 44.8, or 80.0μM PFESA1, or 0.4% DMSO was evaluated. In Study 2, zebrafish were exposed to 4.4, 7.9, 14.0, 25.1, 44.8, or 80.0μM GenX Free Acid, or DI water. In Study 3, to increase the likelihood of observing malformations with shorter-chain compounds at multiple test concentrations, the highest concentration evaluated was 100.0μM . Zebrafish were exposed to 5.5, 9.8, 17.6, 31.4, 56.0, or 100.0μM PFBS; 3.1, 5.5, 9.8, 17.6, 31.4, or 56.0μM PFHxS; 1.7, 3.1, 5.5, 9.8, 17.6, or 31.4μM PFHpS; or 0.5, 1.0, 1.7, 3.1, 5.5, or 9.8μM PFOS, or 0.4% DMSO. Subsequently, as part of Study 3, zebrafish were exposed to 3.1, 5.5, 9.8, 17.6, 31.4, or 56.0μM PFPeS, or 0.4% DMSO. Chemical exposures and assessments were performed daily, as described above. To evaluate swimming behavior in a light/dark behavior test, microtiter plates were placed in a dark, temperature-controlled behavior testing room set to 26.0°C for at least 2 h prior to testing. At the time of testing, microtiter plates were placed on a Noldus tracking apparatus. Locomotor activity was recorded (30 frames/s) for a total of 60 min consisting of a 20-min dark acclimation period (0 lux) that was not analyzed followed by a 40-min testing period consisting of a 20-min light period (5.0 lux) and 20-min dark period (0 lux). Videos were analyzed using Ethovision software (version 3.1; Noldus Information Technology) as previously described ([Jarema et al. 2015]). Locomotor activity was collected for each individual fish for each 2-min period (minimum distance moved, set to 0.135cm ). Thus, for a 40-min test, 20 data points were collected per larvae. […] Four additional criteria for inclusion of individual larvae were applied. One, all larvae that were identified as abnormal, severely abnormal, or dead were excluded. Two, larvae with uninflated swim bladders were removed from analyses. Three, individual larvae that moved <2cm in either […] dark period were removed.

[1] = Study 1, 4.4–80.0 μM daily 0–5 dpf, 0.4% DMSO
[2] = Study 1, light 1 (first 10 min light)

Row | Structure (SMILES) | Developmental neurotoxicity / locomotor activity outcome [1] | DNT assay phenotype | Developmental neurotoxicity / locomotor activity outcome (Study 2, 4.4–80.0 μM in DI water daily 0–5 dpf) | Concentration causing hyperactivity in D1 period (Study 1) [µM] | Concentration causing hyperactivity in D2 period (Study 1) [µM] | Concentration causing hyperactivity in L2 period (Study 1) [µM] | Concentration causing hyperactivity in L1 period [2] [µM] | Concentration causing hyperactivity in D1 period (Study 3) [µM] | Concentration causing hyperactivity in D2 period (Study 3) | Concentration causing hyperactivity in L2 period (Study 3) [µM] | Concentration causing hyperactivity in L1 period (Study 3, light 1) [µM]
1 | O=C(O)C(F)(F)C(F)OC(F)(F)C(F)(F)C(F)(F)OC(F)(F)F (stereo not drawn) [ADONA, 4,8-Dioxa-3H-perfluorononanoate] | did not exhibit differences in locomotor activity; also recorded: failed to provoke developmental toxicity or developmental neurotoxicity; also recorded: negative | Negative^a | – | – | – | – | – | – | – | – | –
2 | O=C(O)C(F)(OC(F)(F)C(F)(F)C(F)(F)F)C(F)(F)F (stereo not drawn) [GenX Free Acid, Perfluoro-2-propoxypropanoic acid] | – | Negative^a | negative; also recorded: failed to provoke developmental toxicity or developmental neurotoxicity | – | – | – | – | – | – | – | –
3 | O=S(=O)(O)C(F)(F)C(F)(F)OC(F)(C(F)(F)F)C(F)(F)OC(F)=C(F)F (stereo not drawn) [PFESA1, Perfluoro-3,6-dioxa-4-methyl-7-octene-1-sulfonic acid] | did not exhibit differences in locomotor activity; also recorded: failed to provoke developmental toxicity or developmental neurotoxicity; also recorded: negative | Negative^a | – | – | – | – | – | – | – | – | –
4 | O=C(O)C(F)(F)C(F)(F)C(F)(F)C(F)(F)C(F)(F)F [PFHxA, Perfluorohexanoic acid] | hyperactivity in the L2, D1, and D2 periods | Hyperactivity^a | – | 14.0 to 25.1 | 14.0 to 25.1 | 25.1 | – | – | – | – | –
5 | O=S(=O)(O)C(F)(F)C(F)(F)C(F)(F)C(F)(F)C(F)(F)C(F)(F)F [PFHxS, Perfluorohexanesulfonic acid] | – | Hyperactivity^a | – | – | – | 14.0 | 14.0 to 25.1 | 17.6 | 17.6 µM | 17.6 to 31.4 | –
6 | O=C(O)C(F)(F)C(F)(F)C(F)(F)C(F)(F)C(F)(F)C(F)(F)C(F)(F)F [PFOA, Perfluoro-n-octanoic acid] | did not exhibit differences in locomotor activity; also recorded: negative | Negative | – | – | – | – | – | – | – | – | –
7 | O=S(=O)(O)C(F)(F)C(F)(F)C(F)(F)C(F)(F)C(F)(F)C(F)(F)C(F)(F)C(F)(F)F [PFOS, Perfluorooctanesulfonic acid] | – | Hyperactivity | – | 0.6 to 1.8 | – | 0.6 to 1.8 | 1.0 | 1.0 | no effect | 1.7 to 3.1 | 1.7 to 3.1
